Patent US20040143004A1, “Metronomic dosing of taxanes” (priority 2004, published 2004)

Test system: endothelial cells in MATRIGEL plugs
Protocol: LX1 human lung tumor fragments that were maintained by serial subcutaneous passage in athymic (nu/nu) Balb/c mice were implanted subcutaneously as small fragments approximately 0.1 mm^3 in size. Tumor volume doubling time for this tumor in these studies was 2.8 days. When tumors reached the size range of 150-200 mm^3, liquid [sequence] was injected subcutaneously on the side contralateral to the tumor. Treatment was initiated 24 hours later at varying doses and schedules. Prior to implanting, [sequence] is prepared by placing solidified [sequence] on ice overnight at 4 C. in accordance with the method described by Passiniti et al. (Lab. Invest. 1992 67:519-28). At the liquid phase and while on ice, VEGF and bFGF (Peprotech, Inc. Rocky Hill, N.J.) is added to the [sequence] at final respective concentrations of 75 ng/ml and 300 ng/ml. […] These plugs were then processed for paraffin embedding and sectioned at 5 μm thickness followed by staining with hematoxylin and eosin prior to quantitative analysis. The number of endothelial cells in plugs was quantitated using the IMAGEPRO PLUS software (Media Cybernetics, Inc., Silver Spring, Md.) at a magnification of 20×. […]
Angiogenesis is evaluated in these plugs as the number of endothelial cells migrating into plugs from compound treated groups relative to the vehicle treated group.

COC(=O)O[C@@]12CO[C@@H]1C[C@H](O)[C@@]1(C)C(=O)[C@H](OC(C)=O)C3=C(C)[C@@H](OC(=O)[C@H](O)[C@@H](NC(=O)OC(C)(C)C)C(C)(C)C)C[C@@](O)([C@@H](OC(=O)c4ccccc4)[C@H]21)C3(C)C [Formula I, 3′-tert-butyl-3′-N-tert-butyloxycarbonyl-4-deacetyl-3′-dephenyl-3′-N-debenzoyl-4-O-methoxycarbonyl-paclitaxel]
dose below MTD at which anti-angiogenic effects are still observed in vivo (fold lower than the maximum tolerated dose): approximately 13 fold
maximum tolerated dose (MTD) (mice, q2dx5 schedule): 60 mg/kg
